Assay results: PubChem BioAssay (NCI)
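Compound exposure: 48 hours, 5 concentrations, 96-well plates. TGI denotes the concentration required for complete inhibition of growth.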

Assays:
Test in all cases: inhibition of tumour cell growth, NCI panel, 48 h
[1] = tested on: A498 renal
[2] = tested on: A549 NSCLC
[3] = tested on: ACHN renal
[4] = tested on: CCRF-CEM leukemia
[5] = tested on: DMS 114 small cell lung
[6] = tested on: DMS 273 small cell lung
[7] = tested on: EKVX NSCLC
[8] = tested on: HCT-116 colon
[9] = tested on: HL-60(TB) leukemia
[10] = tested on: HOP-62 NSCLC
[11] = tested on: HOP-92 NSCLC
[12] = tested on: HT29 colon
[13] = tested on: IGROV1 ovarian
[14] = tested on: KM12 colon
[15] = tested on: KM20L2 colon
[16] = tested on: M14 melanoma
[17] = tested on: M19-MEL melanoma
[18] = tested on: MOLT-4 leukemia
[19] = tested on: NCI-H23 lung
[20] = tested on: NCI-H460 lung
[21] = tested on: NCI-H522 lung
[22] = tested on: OVCAR-5 ovarian
[23] = tested on: OVCAR-8 ovarian
[24] = tested on: RXF 393 renal
[25] = tested on: RXF-631 renal
[26] = tested on: SF-295 CNS
[27] = tested on: SK-MEL-28 melanoma
[28] = tested on: SK-OV-3 ovarian
[29] = tested on: SNB-19 CNS
[30] = tested on: SNB-78 CNS
[31] = tested on: SR leukemia
[32] = tested on: TK-10 renal
[33] = tested on: U251 CNS
[34] = tested on: UACC-257 melanoma
[35] = tested on: UACC-62 melanoma
[36] = tested on: UO-31 renal
[37] = tested on: 786-0 renal
[38] = tested on: CAKI-1 renal
[39] = tested on: COLO 205 colon
[40] = tested on: DLD-1 colon
[41] = tested on: HCC-2998 colon
[42] = tested on: HCT-15 colon
[43] = tested on: HOP-18 NSCLC
[44] = tested on: K-562 leukemia
[45] = tested on: LOX IMVI melanoma
[46] = tested on: LXFL 529 NSCLC
[47] = tested on: MALME-3M melanoma
[48] = tested on: NCI-H226 lung
[49] = tested on: OVCAR-3 ovarian
[50] = tested on: OVCAR-4 ovarian
[51] = tested on: RPMI-8226 leukemia
[52] = tested on: SF-268 CNS
[53] = tested on: SF-539 CNS
[54] = tested on: SK-MEL-2 melanoma
[55] = tested on: SK-MEL-5 melanoma
[56] = tested on: SN12C renal
[57] = tested on: SNB-75 CNS
[58] = tested on: SW-620 colon
[59] = tested on: XF 498 CNS

SMILES: NC(CCc1nc(-c2cccc([N+](=O)[O-])c2)cs1)C(=O)O (configuration not stated)
- TGI [1]: > 100 µM
- TGI [2]: > 100 µM
- TGI [3]: > 100 µM
- TGI [4]: > 100 µM
- TGI [5]: > 100 µM
- TGI [6]: > 100 µM
- TGI [7]: > 100 µM
- TGI [8]: > 100 µM
- TGI [9]: > 100 µM
- TGI [10]: > 100 µM
- TGI [11]: > 100 µM
- TGI [12]: > 100 µM
- TGI [13]: > 100 µM
- TGI [14]: > 100 µM
- TGI [15]: > 100 µM
- TGI [16]: > 100 µM
- TGI [17]: > 100 µM
- TGI [18]: > 100 µM
- TGI [19]: > 100 µM
- TGI [20]: > 100 µM
- TGI [21]: > 100 µM
- TGI [22]: > 100 µM
- TGI [23]: > 100 µM
- TGI [24]: > 100 µM
- TGI [25]: > 100 µM
- TGI [26]: > 100 µM
- TGI [27]: > 100 µM
- TGI [28]: > 100 µM
- TGI [29]: > 100 µM
- TGI [30]: > 100 µM
- TGI [31]: > 100 µM
- TGI [32]: > 100 µM
- TGI [33]: > 100 µM
- TGI [34]: > 100 µM
- TGI [35]: > 100 µM
- TGI [36]: > 100 µM

SMILES: N#Cc1ccc(C2OCC3CC=CCC3CO2)cc1 (configuration not stated)
- TGI [37]: > 100 µM
- TGI [2]: > 100 µM
- TGI [3]: > 100 µM
- TGI [38]: > 100 µM
- TGI [4]: > 100 µM
- TGI [39]: > 100 µM
- TGI [40]: > 100 µM
- TGI [5]: > 100 µM
- TGI [7]: > 100 µM
- TGI [41]: > 100 µM
- TGI [8]: > 100 µM
- TGI [42]: > 100 µM
- TGI [9]: 94.9 µM
- TGI [43]: > 100 µM
- TGI [10]: > 100 µM
- TGI [12]: > 100 µM
- TGI [13]: > 100 µM
- TGI [44]: > 100 µM
- TGI [14]: > 100 µM
- TGI [15]: > 100 µM
- TGI [45]: > 100 µM
- TGI [46]: > 100 µM
- TGI [16]: > 100 µM
- TGI [17]: > 100 µM
- TGI [47]: > 100 µM
- TGI [18]: > 100 µM
- TGI [48]: > 100 µM
- TGI [19]: > 100 µM
- TGI [20]: > 100 µM
- TGI [21]: > 100 µM
- TGI [49]: > 100 µM
- TGI [50]: > 100 µM
- TGI [22]: > 100 µM
- TGI [23]: > 100 µM
- TGI [51]: > 100 µM
- TGI [24]: > 100 µM
- TGI [25]: > 100 µM
- TGI [52]: > 100 µM
- TGI [26]: > 100 µM
- TGI [53]: > 100 µM
- TGI [54]: > 100 µM
- TGI [27]: > 100 µM
- TGI [55]: 49 µM
- TGI [28]: > 100 µM
- TGI [56]: > 100 µM
- TGI [29]: > 100 µM
- TGI [57]: > 100 µM
- TGI [30]: > 100 µM
- TGI [31]: > 100 µM
- TGI [58]: > 100 µM
- TGI [33]: > 100 µM
- TGI [34]: > 100 µM
- TGI [35]: > 100 µM
- TGI [36]: > 100 µM
- TGI [59]: > 100 µM

SMILES: Cc1ccccc1N(CCC#N)C1=NN(C(=O)CC(=O)Nc2ccc(Cl)cc2)C(c2ccccc2)C1 (configuration not stated)
- TGI [37]: > 100 µM
- TGI [2]: > 100 µM
- TGI [3]: > 100 µM
- TGI [4]: > 100 µM
- TGI [39]: > 100 µM
- TGI [40]: > 100 µM
- TGI [5]: > 100 µM
- TGI [6]: > 100 µM
- TGI [7]: > 100 µM
- TGI [41]: > 100 µM
- TGI [8]: > 100 µM
- TGI [42]: > 100 µM
- TGI [9]: > 100 µM
- TGI [43]: > 100 µM
- TGI [10]: > 100 µM
- TGI [11]: > 100 µM
- TGI [12]: > 100 µM
- TGI [13]: > 100 µM
- TGI [44]: > 100 µM
- TGI [14]: > 100 µM
- TGI [15]: > 100 µM
- TGI [46]: > 100 µM
- TGI [16]: > 100 µM
- TGI [17]: > 100 µM
- TGI [47]: > 100 µM
- TGI [18]: > 100 µM
- TGI [48]: > 100 µM
- TGI [19]: > 100 µM
- TGI [20]: > 100 µM
- TGI [21]: > 100 µM
- TGI [49]: > 100 µM
- TGI [50]: > 100 µM
- TGI [22]: > 100 µM
- TGI [23]: > 100 µM
- TGI [51]: > 100 µM
- TGI [24]: > 100 µM
- TGI [25]: > 100 µM
- TGI [52]: > 100 µM
- TGI [26]: > 100 µM
- TGI [53]: > 100 µM
- TGI [54]: > 100 µM
- TGI [27]: > 100 µM
- TGI [55]: > 100 µM
- TGI [28]: > 100 µM
- TGI [56]: > 100 µM
- TGI [29]: > 100 µM
- TGI [57]: > 100 µM
- TGI [30]: > 100 µM
- TGI [31]: > 100 µM
- TGI [58]: > 100 µM
- TGI [33]: > 100 µM
- TGI [34]: > 100 µM
- TGI [35]: > 100 µM
- TGI [36]: > 100 µM

SMILES: COC(=O)c1cc(O)ccc1O
- TGI [37]: > 100 µM
- TGI [2]: > 100 µM
- TGI [3]: > 100 µM
- TGI [38]: > 100 µM
- TGI [4]: > 100 µM
- TGI [39]: > 100 µM
- TGI [5]: > 100 µM
- TGI [6]: > 100 µM
- TGI [7]: > 100 µM
- TGI [41]: > 100 µM
- TGI [42]: > 100 µM
- TGI [9]: > 100 µM
- TGI [10]: > 100 µM
- TGI [11]: > 100 µM
- TGI [12]: > 100 µM
- TGI [13]: > 100 µM
- TGI [44]: > 100 µM
- TGI [14]: > 100 µM
- TGI [45]: > 100 µM
- TGI [46]: > 100 µM
- TGI [16]: > 100 µM
- TGI [17]: > 100 µM
- TGI [47]: > 100 µM
- TGI [18]: > 100 µM
- TGI [48]: > 100 µM
- TGI [20]: > 100 µM
- TGI [21]: > 100 µM
- TGI [49]: > 100 µM
- TGI [50]: > 100 µM
- TGI [22]: > 100 µM
- TGI [23]: > 100 µM
- TGI [51]: > 100 µM
- TGI [24]: > 100 µM
- TGI [25]: > 100 µM
- TGI [52]: > 100 µM
- TGI [26]: > 100 µM
- TGI [53]: > 100 µM
- TGI [54]: > 100 µM
- TGI [27]: > 100 µM
- TGI [55]: > 100 µM
- TGI [28]: > 100 µM
- TGI [56]: > 100 µM
- TGI [29]: > 100 µM
- TGI [57]: > 100 µM
- TGI [30]: > 100 µM
- TGI [58]: > 100 µM
- TGI [32]: > 100 µM
- TGI [33]: > 100 µM
- TGI [34]: > 100 µM
- TGI [35]: > 100 µM
- TGI [36]: > 100 µM
- TGI [59]: > 100 µM
